Assay results taken from US5002948A, “3-[4-[4-substituted-1-piperazinyl]-1-butyl]-1H-2,3-dihydroindoles” (H. Lundbeck A/S, priority 1988, dated 1991).

What follows are molecules tested against T1, serotonin 5-HT1A receptors (Rattus norvegicus, UniProt P19327) (assay: Inhibition of 3H-8-OHDPAT binding to serotonin 5-HT1A receptors in rat brain in vitro). Conditions: 3H-8-OHDPAT 1 nM, rat brain membranes minus cerebellum, 37° C., 15 min; read-out: IC50 (3H 8-OH DPAT binding).
T1 construct: membranes from rat brain minus cerebellum; from tissue; host or cells: brain minus cerebellum of male Wistar (Mol:Wist) rats, membranes
T1 sequence (P19327 1-422): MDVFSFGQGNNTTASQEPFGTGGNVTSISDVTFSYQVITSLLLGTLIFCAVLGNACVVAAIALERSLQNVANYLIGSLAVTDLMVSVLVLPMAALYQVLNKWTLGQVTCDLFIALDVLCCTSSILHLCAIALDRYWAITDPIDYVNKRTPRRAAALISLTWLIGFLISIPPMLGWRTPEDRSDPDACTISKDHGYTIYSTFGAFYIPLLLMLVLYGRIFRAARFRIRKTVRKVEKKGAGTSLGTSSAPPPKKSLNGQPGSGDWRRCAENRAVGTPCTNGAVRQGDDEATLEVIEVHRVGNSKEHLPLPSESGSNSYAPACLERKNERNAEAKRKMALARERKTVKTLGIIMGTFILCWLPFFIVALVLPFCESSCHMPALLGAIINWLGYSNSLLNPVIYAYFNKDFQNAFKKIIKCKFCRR
Description: INHIBITION OF ^3 H-8-OHDPAT BINDING TO SEROTONIN 5-HT1A RECEPTORS IN A RAT BRAIN IN VITRO
By this method the inhibition by drugs of the binding of ^3 H-8-OHDPAT (1 nM) to serotonin 5-HT1A receptors in membranes from rat brain minus cerebellum is determined in vitro.
Male Wistar (Mol:Wist) rats (125-250 g) are sacrificed and the brain is dissected and weighed. The brain tissue minus cerebellum is homogenized (Ultra Turrax, 20 sec) in 10 ml of ice cold 50 mM Tris buffer pH 8.0 (at 25° C.) containing 120 mM NaCl, 4 mM CaCl2 and 4 mM MgCl2. The homogenate is centrifuged at 20,000 g for 10 min at 4° C. The pellet is homogenized in 10 ml of buffer and incubated at 37° C. for 10 min. The homogenate is centrifuged as above and the pellet is homogenized in 100 vol (w/v) ice cold buffer containing 10 μ M of parglyine.
Incubation tubes kept on ice in triplicate receive 100 μl of drug solution in water (or water for total binding) and 1000 μ l of tissue suspension (final tissue content corresponds to 10 mg original tissue). The binding experiment is initiated by addition of 100 μ l of ^3 H-8-OHDPAT (final concentration 1 nM) and by placing the tubes in a 37° C. water bath. After incubation for 15 min the samples are filtered under vacuum (0-50 mBar) through Whatman GF/F filters ([…]). The tubes are rinsed with 5 ml ice cold 0.9% NaCl which are then poured on the filters. Thereafter, the filters are washed with 2×5 ml 0.9% NaCl. The filters are placed in counting vials and 4 ml of appropriate scintillation fluid (e.g. Picofluor™15) are added. After shaking for 1 h and storage 2 h in the dark the content of radioactivity is determined by liquid scintillation counting. Specific binding is obtained by subtracting the nonspecific binding in the presence of 10 μ M of 5-HT.
For determination of the inhibition of binding five concentrations of drugs covering 3 decades are used.
The IC50 -value is determined as the concentration, at which the binding is 50% of the total binding in control samples minus the nonspecific binding in the presence of 10 μM of 5-HT.
^3 H-8-OHDPAT from Amersham International plc. England. Specific activity approximately 200 Ci/mmol).

Point of comparison: c1ccc2c(c1)NCC2CCCCN1CCN(c2cccc3c2OCCO3)CC1 (single isomer, unassigned; (+)) [Compound 7c, (+)-3-[4-[4-(1,4-benzodioxan-5-yl)-1-piperazinyl]-1-butyl]-1H-2,3-dihydroindole], IC50 3.5 nM. Against it:
- COc1ccccc1N1CCN(CCCCC2CN(C)c3ccccc32)CC1 (stereo not drawn) [Compound 6a, 3-[4-[4-(2-methoxyphenyl)-1-piperazinyl]-1-butyl]-1-methyl-1H-2,3-dihydroindole] — 12-fold higher, 43 nM
- Oc1ccccc1N1CCN(CCCCC2CNc3ccccc32)CC1 (stereo not drawn) [Compound 4a, 3-[4-[4-(2-hydroxyphenyl)-1-piperazinyl]-1-butyl]-1H-2,3-dihydroindole] — 4.9-fold higher, 17 nM
- Clc1ccc2c(c1)C(CCCCN1CCN(c3cccc4c3OCCO4)CC1)CN2 (stereo not drawn) [Compound 3k, 3-[4-[4-(1,4-benzodioxan-5-yl)-1-piperazinyl]-1-butyl]-5-chloro-1H-2,3-dihydroindole] — 2.2-fold higher, 7.6 nM
- COc1ccccc1N1CCN(CCCCC2CN(C(C)=O)c3ccccc32)CC1 (stereo not drawn) [Compound 5a, 1-Acetyl-3-[4-[4-(2-methoxyphenyl)-1-piperazinyl]-1-butyl]-1H-2,3-dihydroindole] — 10-fold higher, 35 nM
- COc1ccccc1N1CCN(CCCCc2n[nH]c3ccc(C(F)(F)F)cc23)CC1 [Compound 9a, 3-[4-[4-(2-methoxyphenyl)-1-piperazinyl]-1-butyl]-5-trifluoromethyl-1H-indazole] — 2.5-fold higher, 8.6 nM
- c1cc2c(c(N3CCN(CCCCc4c[nH]c5ccccc45)CC3)c1)OCCO2 [Compound 2c, 3-[4-[4-(1,4-benzodioxan-5-yl)-1-piperazinyl]-1-butyl]-1H-indole] — 1.6-fold higher, 5.7 nM
- Fc1ccc2c(c1)C(CCCCN1CCN(c3cccc4c3OCCO4)CC1)CN2 (stereo not drawn) [Compound 3l, 3-[4-[4-(1,4-benzodioxan-5-yl)-1-piperazinyl]-1-butyl]-5-fluoro-1H-2,3-dihydroindole] — within 1.5-fold, 4.4 nM
- COc1ccccc1N1CCN(CCCCC2CNc3ccc(F)cc32)CC1 (stereo not drawn) [Compound 3g, 5-fluoro-3-[4-[4-(2-methoxyphenyl)-1-piperazinyl]-1-butyl]-1H-2,3-dihydroindole] — 4.9-fold higher, 17 nM
- COc1cccc(N2CCN(CCCCC3CNc4ccccc43)CC2)c1OC (stereo not drawn) [Compound 3h, 3-[4-[4-(2,3-dimethoxyphenyl)-1-piperazinyl]-1-butyl]-1H-2,3-dihydroindole] — 26-fold higher, 90 nM
- COc1ccccc1N1CCN(CCCCC2C(=O)Nc3ccccc32)CC1 (stereo not drawn) [Compound 8a, 3-[4-[4-(2-methoxyphenyl)-1-piperazinyl]-1-butyl]-1H-2,3-dihydroindol-2-on] — 15-fold higher, 51 nM
- CSc1ccccc1N1CCN(CCCCC2CNc3ccccc32)CC1 (stereo not drawn) [Compound 3b, 3-[4-[4-(2-methylthiophenyl)-1-piperazinyl]-1-butyl]-1H-2,3-dihydroindole] — 4-fold higher, 14 nM
- c1cc2c(c(N3CCN(CCCCc4c[nH]c5ccccc45)CC3)c1)OCC2 [Compound 2b, 3-[4-[4-(2,3-dihydro-7-benzofuranyl)-1-piperazinyl]-1-butyl]-1H-indole] — 4-fold higher, 14 nM
- COc1ccccc1N1CCN(CCCCc2c[nH]c3ccc(F)cc23)CC1 [Compound 1a, 5-Fluoro-3-[4-[4-(2-methoxyphenyl)-1-piperazinyl]-1-butyl]-1 H-indole] — 3.1-fold higher, 11 nM
- c1ccc2c(c1)NCC2CCCCN1CCN(c2cccc3c2OCCO3)CC1 (single isomer, unassigned; (-)) [Compound 7d, (-)-b 3-[4-[4-(1,4-benzodioxan-5-yl)-1-piperazinyl]-1-butyl]-1H-2,3-dihydroindole] — within 1.5-fold, 3.1 nM
- COc1ccccc1N1CCN(CCCCc2c[nH]c3ccccc23)CC1 [Compound 2a, 3-[4[4-(2-methoxyphenyl)-1-piperazinyl]-1-butyl]-1H-indole] — 4.9-fold higher, 17 nM
- Fc1ccc2[nH]cc(CCCCN3CCN(c4cccc5c4OCC5)CC3)c2c1 [Compound 2e] — 4.3-fold higher, 15 nM
- CC(C)Oc1ccccc1N1CCN(CCCCC2CNc3ccccc32)CC1 (stereo not drawn) [Compound 3d, 3-[4-[4-(2-isopropyloxyphenyl)-1-piperazinyl]-1-butyl]-1H-2,3-dihydroindole] — 4.9-fold higher, 17 nM
